According to patent US6887873B2, “Triazine derivatives and their application as antitelomerase agents” (Aventis Pharma S.A., priority 2001, dated 2005):

Tested on: G-quadruplex of oligonucleotide GGGTTAGGGTTAGGGTTAGGG (3.5 repeats of the human telomereic motif)
Assay: G-quadruplex stabilizing activity, fluorescence Tm (FAM+DABCYL oligonucleotide)
Format: binding
Summary of the method: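 FAM/DABCYL-labelled telomeric oligonucleotide (0.2 μM strand) in 10 mM sodium cacodylate pH 7.6 with 0.1 M LiCl (or NaCl) was annealed, then incubated ≥1 h at 20 °C with compound at 1 μM final. Samples were heated 20→80 °C, with excitation at 470 nm and emission at 515/588 nm. Tm is the 515 nm emission midpoint.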
For `Cc1cc(N(C)C)c2cc(Nc3nc(Nc4ccc5nc(C)cc(N(C)C)c5c4)nc(N4CCCN(CCCN5CCCC5)CC4)n3)ccc2n1` [Example 139], the “G4 delta Tm” value was 18.5 °C.
For `Cc1cc(N(C)C)c2cc(Nc3nc(Nc4ccc5nc(C)cc(N(C)C)c5c4)nc(N(C)C4CCN(C)CC4)n3)ccc2n1` [Example 138, 2,4-bis(4-dimethylamino-2-methylquinolin-6-yl)amino-6-[N-(1-methylpiperidin-4-yl)-N-methylamino]-[1,3,5]triazine], the “G4 delta Tm” value was 16 °C.
For `Cc1cc(N)c2cc(Nc3nc(Nc4ccc(N5CCNCC5)cc4)nc(Nc4ccc5nc(C)cc(N)c5c4)n3)ccc2n1` [Example 15], the “G4 delta Tm” value was 2.7 °C.
For `CCCN(CCC)CCN1CCN(c2nc(Nc3ccc4nc(C)cc(N(C)C)c4c3)nc(Nc3ccc4nc(C)cc(N(C)C)c4c3)n2)CC1` [Example 137, 2,4-bis(4-dimethylamino-2-methylquinolin-6-yl)amino-6-[1-(2-dipropylaminoethyl)piperazin-4-yl]-[1,3,5]triazine], the “G4 delta Tm” value was 16 °C.
In the case of `Cc1cc(N(C)C)c2cc(Nc3nc(Nc4ccc5nc(C)cc(N(C)C)c5c4)nc(C4CCN(C)CC4)n3)ccc2n1` [Example 19, 2,4-bis(4-dimethylamino-2-methylquinolin-6-yl)amino-6-(1-methylpiperidin-4-yl)-[1,3,5]triazine], the “G4 delta Tm” value was 3.5 °C.
In the case of `Cc1cc(N)c2cc(Nc3nc(Nc4ccc5nc(C)cc(N)c5c4)nc(NC4CN5CCC4CC5)n3)ccc2n1` (centres unmarked) [Example 17, 2,4-bis(4-amino-2-methylquinolin-6-yl)amino-6-(quinuclidin-3-yl)amino-[1,3,5]triazine], the “G4 delta Tm” value was 17.1 °C.
In the case of `Cc1cc(N(C)C)c2cc(Nc3nc(NCCCN(C)C)nc(Nc4ccc5nc(C)cc(N(C)C)c5c4)n3)ccc2n1` [Example 1, 2,4-bis(4-dimethylamino-2-methylquinolin-6-yl)amino-6-(3-dimethylaminopropyl)amino-[1,3,5]triazine], the “G4 delta Tm” value was 11.3 °C.
For `Cc1cc(N)c2cc(Nc3nc(Nc4ccc5nc(C)cc(N)c5c4)nc(N4CCN(C5CCCC5)CC4)n3)ccc2n1` [Example 43], the “G4 delta Tm” value was 18 °C.
With `CC(=O)NCCNc1nc(Nc2ccc3nc(C)cc(N(C)C)c3c2)nc(Nc2ccc3nc(C)cc(N(C)C)c3c2)n1` [Example 150] the “G4 delta Tm” value was 6.5 °C.
With `Cc1cc(N(C)C)c2cc(Nc3nc(Nc4ccc5nc(C)cc(N(C)C)c5c4)nc(N4CCN(C)CC4)n3)ccc2n1` [Example 20, 2,4-bis(4-dimethylamino-2-methylquinolin-6-yl)amino-6-(4-methylpiperazin-1-yl)-[1,3,5]triazine] the “G4 delta Tm” value was 6.4 °C.
With `Cc1cc(N(C)C)c2cc(Nc3nc(Nc4ccc5nc(C)cc(N(C)C)c5c4)nc(N4CCN(CCOCCO)CC4)n3)ccc2n1` [Example 141, 2,4-bis(4-dimethylamino-2-methylquinolin-6-yl)amino-6-{[1-2-(2-hydroxyethyl)oxyethyl]piperazin-4-yl}-[1,3,5]triazine] the “G4 delta Tm” value was 7 °C.
With `COc1cccc(Oc2nc(Nc3ccc4nc(C)cc(N)c4c3)nc(Nc3ccc4nc(C)cc(N)c4c3)n2)c1` [Example 104] the “G4 delta Tm” value was 4.5 °C.
For `Cc1cc(N)c2cc(Nc3nc(Nc4ccc5nc(C)cc(N)c5c4)nc(Oc4ccccc4Cl)n3)ccc2n1` [Example 103], the “G4 delta Tm” value was 7 °C.
With `Cc1cc(N)c2cc(Nc3nc(Nc4ccc5nc(C)cc(N)c5c4)nc(N4CCN(C5CCCCCCC5)CC4)n3)ccc2n1` [Example 77] the “G4 delta Tm” value was 12.5 °C.
In the case of `Cc1cc(N(C)C)c2cc(Nc3nc(Nc4ccc5nc(C)cc(N(C)C)c5c4)nc(N4CCN(C5CCCC5)CC4)n3)ccc2n1` [Example 143], the “G4 delta Tm” value was 13 °C.
With `Cc1cc(N)c2cc(Nc3nc(Nc4ccc5nc(C)cc(N)c5c4)nc(OCCN(C)Cc4ccccc4)n3)ccc2n1` [Example 105] the “G4 delta Tm” value was 12 °C.
For `Cc1cc(N(C)C)c2cc(Nc3nc(Nc4ccc5nc(C)cc(N(C)C)c5c4)nc(N4CCCN(C)CC4)n3)ccc2n1` [Example 135, 2,4-bis(4-dimethylamino-2-methylquinolin-6-yl)amino-6-(1-methylhomopiperazin-4-yl)-[1,3,5]triazine], the “G4 delta Tm” value was 20 °C.
With `Cc1cc(N(C)C)c2cc(Nc3nc(NCC[N+](C)(C)C)nc(Nc4ccc5nc(C)cc(N(C)C)c5c4)n3)ccc2n1` [Example 142] the “G4 delta Tm” value was 9.5 °C.
With `Cc1cc(N(C)C)c2cc(Nc3nc(NCc4ccncc4)nc(Nc4ccc5nc(C)cc(N(C)C)c5c4)n3)ccc2n1` [Example 27, 2,4-bis(4-dimethylamino-2-methylquinolin-6-yl)amino-6-(pyridin-4-yl)methylamino-[1,3,5]triazine] the “G4 delta Tm” value was 11.0 °C.
For `Cc1cc(N)c2cc(Nc3nc(Nc4ccc5nc(C)cc(N)c5c4)nc(NC4CCN(Cc5ccccc5)CC4)n3)ccc2n1` [Example 93], the “G4 delta Tm” value was 8 °C.
For `Cc1cc(N(C)C)c2cc(Nc3nc(NCc4ccncc4)nc(Nc4ccc5nc(C)cc(N(C)C)c5c4)n3)ccc2n1` [Example 145], the “G4 delta Tm” value was 5 °C.
With `Cc1cc(N)c2cc(Nc3nc(Nc4ccc5nc(C)cc(N)c5c4)nc(N(Cc4ccccc4)C4CN5CCC4CC5)n3)ccc2n1` (centres unmarked) [Example 92] the “G4 delta Tm” value was 3.5 °C.
With `Cc1cc(N)c2cc(Nc3nc(Nc4ccc5nc(C)cc(N(C)C)c5c4)nc(Nc4ccccc4Cl)n3)ccc2n1` [Example 3] the “G4 delta Tm” value was 5.5 °C.
In the case of `Cc1cc(N(C)C)c2cc(Nc3nc(Nc4ccc5nc(C)cc(N(C)C)c5c4)nc(N4CCN(c5ccncc5)CC4)n3)ccc2n1` [Example 144, 2,4-bis(4-dimethylamino-2-methylquinolin-6-yl)amino-6-[1-(pyridin-4-yl)piperazin-4-yl]-[1,3,5]triazine], the “G4 delta Tm” value was 22.5 °C.
For `Cc1cc(N(C)C)c2cc(Nc3nc(Nc4ccc5nc(C)cc(N(C)C)c5c4)nc(Oc4ccncc4)n3)ccc2n1` [Example 115, 2,4-bis(4-dimethylamino-2-methylquinolin-6-yl)amino-6-(pyridin-4-yl)oxy-[1,3,5]triazine], the “G4 delta Tm” value was 13 °C.
For `Cc1cc(N)c2cc(Nc3nc(Nc4ccc5nc(C)cc(N)c5c4)nc(Sc4ccccn4)n3)ccc2n1` [Example 120], the “G4 delta Tm” value was 11.5 °C.
For `Cc1cc(N(C)C)c2cc(Nc3nc(Nc4ccncc4)nc(Nc4ccc5nc(C)cc(N(C)C)c5c4)n3)ccc2n1` [Example 18], the “G4 delta Tm” value was 2.4 °C.
For `Cc1cc(N)c2cc(Nc3nc(Nc4ccc5nc(C)cc(N)c5c4)nc(N4CCN(C(=O)c5ccco5)CC4)n3)ccc2n1` [Example 68], the “G4 delta Tm” value was 8 °C.
For `Cc1cc(N)c2cc(Nc3nc(Nc4ccc5nc(C)cc(N)c5c4)nc(Nc4ccc5nc(C)cc(N)c5c4)n3)ccc2n1` [Example 2, 2,4,6-tris(4-amino-2-methylquinolin-6-yl)amino-[1,3,5]triazine], the “G4 delta Tm” value was 18 °C.
In the case of `Cc1cc(N(C)C)c2cc(Nc3nc(NCCN4CCN(Cc5ccccc5)CC4)nc(Nc4ccc5nc(C)cc(N(C)C)c5c4)n3)ccc2n1` [Example 140], the “G4 delta Tm” value was 5.5 °C.
For `Cc1cc(N(C)C)c2cc(Nc3nc(Nc4ccc5nc(C)cc(N(C)C)c5c4)nc(N4CCN(CCCN(C)C)CC4)n3)ccc2n1` [Example 136, 2,4-bis(4-dimethylamino-2-methylquinolin-6-yl)amino-6-[1-(3-dimethylaminopropyl)piperazin-4-yl]-[1,3,5]triazine], the “G4 delta Tm” value was 20.5 °C.
In the case of `Cc1cc(C)nc(Sc2nc(Nc3ccc4nc(C)cc(N)c4c3)nc(Nc3ccc4nc(C)cc(N)c4c3)n2)n1` [Example 127], the “G4 delta Tm” value was 14 °C.
In the case of `Cc1cc(N)c2cc(Nc3nc(Nc4ccc5nc(C)cc(N)c5c4)nc(N4CCCC4c4cccnc4)n3)ccc2n1` (centres unmarked) [Example 86], the “G4 delta Tm” value was 6 °C.
With `Cc1cc(N)c2cc(Nc3nc(Nc4ccc5nc(C)cc(N)c5c4)nc(NC4CCN(Cc5ccccc5)C4)n3)ccc2n1` (centres unmarked) [Example 41] the “G4 delta Tm” value was 19 °C.
In the case of `Cc1cc(N)c2cc(Nc3nc(Nc4ccc5nc(C)cc(N)c5c4)nc(Sc4ccccc4Cl)n3)ccc2n1` [Example 118], the “G4 delta Tm” value was 3.5 °C.
With `Cc1cc(N)c2cc(Nc3nc(Nc4ccc5nc(C)cc(N)c5c4)nc(Sc4ncccn4)n3)ccc2n1` [Example 126] the “G4 delta Tm” value was 19 °C.
For `CCN(CCNc1nc(Nc2ccc3nc(C)cc(N(C)C)c3c2)nc(Nc2ccc3nc(C)cc(N(C)C)c3c2)n1)c1cccc(C)c1` [Example 28], the “G4 delta Tm” value was 10.6 °C.
In the case of `COc1ccc(CSc2nc(Nc3ccc4nc(C)cc(N)c4c3)nc(Nc3ccc4nc(C)cc(N)c4c3)n2)cc1` [Example 124], the “G4 delta Tm” value was 3 °C.
In the case of `Cc1cc(N)c2cc(Nc3nc(NCc4ccc([N+](C)(C)C)cc4)nc(Nc4ccc5nc(C)cc(N)c5c4)n3)ccc2n1` [Example 60], the “G4 delta Tm” value was 6 °C.
With `Cc1cc(N(C)C)c2cc(Nc3nc(Nc4ccc5nc(C)cc(N(C)C)c5c4)nc(N4CCC[C@H]4CN4CCCC4)n3)ccc2n1` [Example 149, 2,4-bis(4-dimethylamino-2-methylquinolin-6-yl)amino-6-[2(S)-(pyrrolidin-1-yl)methylpyrrolidin-1-yl]-[1,3,5]triazine] the “G4 delta Tm” value was 12.5 °C.
In the case of `CCN(CCN(C)C)c1nc(Nc2ccc3nc(C)cc(N(C)C)c3c2)nc(Nc2ccc3nc(C)cc(N(C)C)c3c2)n1` [Example 146], the “G4 delta Tm” value was 6 °C.
In the case of `Cc1cc(N)c2cc(Nc3nc(Nc4ccc5nc(C)cc(N)c5c4)nc(Sc4ccc5ccccc5n4)n3)ccc2n1` [Example 128, 2,4-bis(4-amino-2-methylquinolin-6-yl)amino-6-(quinolin-2-yl)thio-[1,3,5]triazine], the “G4 delta Tm” value was 15 °C.
For `CC1=NCCN1c1nc(Nc2ccc3nc(C)cc(N(C)C)c3c2)nc(Nc2ccc3nc(C)cc(N(C)C)c3c2)n1` [Example 148], the “G4 delta Tm” value was 12 °C.

Tested on: not given
Assay: not given
`Cc1cc(N(C)C)c2cc(Nc3nc(Nc4ccc5nc(C)cc(N(C)C)c5c4)nc(N4CCN(C)CC4)n3)ccc2n1` [Example 20, 2,4-bis(4-dimethylamino-2-methylquinolin-6-yl)amino-6-(4-methylpiperazin-1-yl)-[1,3,5]triazine] showed a melting point of 256 to 260 °C.
